Laboratory results from patent US4831046A, “Tetrazole derivatives of 1,3-dioxane and thromboxane A2 antigonizing use thereof” (Imperial Chemical Industries PLC, priority 1985, dated 1989).

Experiments:
[1] = tested on: rabbit aortal strip; test: rabbit aortal strip model (agonist TXA2 or U46619); format: cell-based; settings: test (a), TXA2 antagonism
Method: (§1) As stated earlier, the compounds of formula I are antagonists of one or more of the actions of TXA2, for example certain of its actions on blood platelets, the vasculature and/or the lung.
(a) The rabbit aortal strip model devised by Piper and Vane (Nature, 1969, 223, 29-35) using as agonist a freshly prepared sample of TXA2, generated by addition of arachidonic acid (25 μg) to citrated, platelet rich rabbit plasma (250 μl) and allowing the mixture to aggregate fully over 90 seconds before use; alternatively the TXA2 mimetic agent known as U46619 (described by R L Jones et alia, in "Chemistry, Biochemistry and Pharmacological Activity of Prostanoids" edited by S M Roberts and F Scheinmann, at page 211, Pergamon Press, 1979) may be used as the agonist;

[2] = target: T1, human, citrated platelet-rich plasma (Homo sapiens, UniProt P21731); test: blood platelet aggregation test (U46619, based on Born); format: cell-based; settings: test (b), averaged over several concentrations
T1 construct: aggregating human, citrated platelet-rich plasma by addition of the TXA2 mimetic agent U46619; endogenous in cells; host or cells: human platelets in citrated platelet-rich plasma
T1 sequence (P21731 1-343): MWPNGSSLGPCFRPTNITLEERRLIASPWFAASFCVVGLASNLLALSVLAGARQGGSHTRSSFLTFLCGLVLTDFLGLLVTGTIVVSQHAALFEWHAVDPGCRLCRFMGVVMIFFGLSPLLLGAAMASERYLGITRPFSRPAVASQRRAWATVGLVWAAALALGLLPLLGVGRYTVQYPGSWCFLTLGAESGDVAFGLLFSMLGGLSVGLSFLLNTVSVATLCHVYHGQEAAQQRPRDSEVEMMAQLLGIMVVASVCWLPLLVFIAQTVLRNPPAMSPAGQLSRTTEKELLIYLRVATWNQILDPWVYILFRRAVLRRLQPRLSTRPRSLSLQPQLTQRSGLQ
Source text: as §1
(b) a blood platelet aggregation test based on that described by Born (Nature, 1962, 194, 927-929) and involving:
(i) aggregating human, citrated platelet-rich plasma by addition of the TXA2 mimetic agent U46619 so that a dose-response curve is generated;
(ii) generating a dose-response curve for U46619 stimulated platelet aggregation in the presence of increasing amounts of test compound (generally in the range, 10^-5 M to 10^-10 M); and
(iii) calculating a KB value indicating potency of TXA2 antagonism for the test compound averaged over several concentrations, from the calculated 50% response value for U46619 aggregation in the presence and absence of test compound; and […]

[3] = tested on: U46619 induced bronchoconstriction; test: bronchoconstriction test, U46619 induced, Konzett-Rossler anaesthetised guinea-pig model; format: in vivo; settings: test (c), 50 μg/kg p.o., 50% response
Source text: as §1
(c) a bronchoconstriction test involving measuring the inhibition by a test compound of the bronchoconstriction induced in the Konzett-Rossler, anaesthetised guinea-pig model (as modified by Collier and James, Brit. J. Pharmacol., 1967, 30, 283-307) by intravenous administration of the TXA2 mimetic agent, U46619 and involving:
(i) obtaining a cumulative dose-response curve to U46619 induced bronchoconstriction by intravenous administration of constant volumes of increasing concentrations of U46619 (0.2-4 μg/kg) in physiological saline solution and expressing bronchoconstriction as the maximum of that theoretically obtainable with no air flow to the test animal;
(ii) generating a cumulative dose-response curve to U46619 induced bronchoconstriction at 30 minute intervals for 3 hours after oral dosing of test compound; and
(iii) calculating a dose-ratio for the test compound (that is the ratio of concentration of U46619 required to cause 50% bronchoconstriction in the presence and absence of test compound) indicating the potency of TXA2 antagonism.

CC(C)[C@@H]1OC[C@H](C/C=C\CCc2nn[nH]n2)[C@H](c2ccccc2O)O1 (relative stereo) [Example 5, 5-[3(Z)-5-([2,4,5-cis]-4-o-hydroxyphenyl-2-isopropyl-1,3-dioxan-5-yl)pentenyl]-1(H)-tetrazole]
pA2 [1]: 7.32
Kb [2]: 45.6 nM
dose ratio [3]: 25
